Melting point data for 34 compounds are collected here from patent US9051342B2 (priority 2004, dated 2015).

Several values for one entry are separate records, joined by “and”; a condition that tells them apart may be missing. Equal values may be shown once.

The melting point is the temperature, or range, at which the solid turns liquid. Turning to `O=C(O)c1ccc(-n2cnc(-c3cccc(C(=O)O)c3)n2)cc1` [Compound 31, 4-[3-(3-Carboxy-phenyl)-[1,2,4]triazol-1-yl]-benzoic acid], the melting point was above 300 °C.
Compound `O=C(O)c1ccc(-n2cc(-c3ccc(Cl)cc3)nn2)cc1` [Compound 269, 4-[4-(4-Chloro-phenyl)-[1,2,3]triazol-1-yl]-benzoic acid] displayed a melting point of 313 to 314 °C.
Regarding `O=C(O)c1cccc(-n2ccc(-c3cccc(F)c3)n2)c1` [Compound 93, 3-[3-(3-Fluoro-phenyl)-pyrazol-1-yl]-benzoic acid], the melting point fell in the range of 173 to 174 °C.
`O=C(O)c1cccc(-c2ccn(-c3cccc(Br)c3)n2)c1` [Compound 165, 3-[1-(3-Bromo-phenyl)-1H-pyrazol-3-yl]-benzoic acid] displayed a melting point of 180 to 183 °C.
In the case of `O=C(O)c1ccc(-n2cc(-c3ccc(F)cc3F)cn2)cc1` [Compound 104, 4-[4-(2,4-Difluoro-phenyl)-pyrazol-1-yl]-benzoic acid], the melting point lay within 291 to 293 °C.
`O=C(O)c1cccc(-c2ccn(-c3ccc(OC(F)F)cc3)n2)c1` [Compound 124, 3-[1-(4-Difluoromethoxy-phenyl)-1H-pyrazol-3-yl]-benzoic acid]: the melting point lay in the range of 182 to 183 °C.
`CCc1ccc(-n2ccc(-c3cccc(C(=O)O)c3)c2)cc1` [Compound 125, 3-[1-(4-Ethyl-phenyl)-1H-pyrrol-3-yl]-benzoic acid] yielded a melting point of 190 to 192 °C.
In the case of `O=C(O)c1ccc(-c2cnn(-c3ccc4c(c3)OCCO4)c2)cc1` [Compound 226, 4-[1-(2,3-Dihydro-benzo[1,4]dioxin-6-yl)-1H-pyrazol-4-yl]-benzoic acid], the melting point was in the range of 238 to 240 °C.
With `O=C(O)c1cccc(-n2cc(-c3cccc(OC(F)(F)F)c3)cn2)c1` [Compound 209, 3-[4-(3-Trifluoromethoxy-phenyl)-pyrazol-1-yl]-benzoic acid] the figure was 166 to 168 °C; with `O=C(O)c1cccc(-n2cc3c(n2)-c2cccc(OC(F)F)c2CC3)c1` [Compound 183, 3-(6-Difluoromethoxy-4,5-dihydro-benzo[g]indazol-2-yl)-benzoic acid], 235 to 237 °C; with `N#Cc1cccc(-c2ccn(-c3ccc(F)c(F)c3)n2)c1` [Compound 63, 3-[1-(3,4-Difluoro-phenyl)-1H-pyrazol-3-yl]-benzonitrile], 142 to 145 °C.
On to `O=C(O)c1ccc(-n2ccc(-c3ccccc3)n2)cc1` [Compound 222, 4-(3-Phenyl-pyrazol-1-yl)-benzoic acid], for which the melting point lay within 244 to 245 °C.
The value for `COc1cccc(-n2ccc(-c3cccc(C(=O)O)c3)n2)c1` [Compound 77, 3-[1-(3-Methoxy-phenyl)-1H-pyrazol-3-yl]-benzoic acid] was 153 to 154 °C; that for `Cc1ccc(-n2ccc(-c3cccc(C(=O)O)c3)n2)cc1` [Compound 166, 3-(1-p-Tolyl-1H-pyrazol-3-yl)-benzoic acid] was 192 to 193 °C; that for `Cc1cccc(-n2cnc(-c3cccc(C(=O)O)c3)n2)c1` [Compound 39, 3-(1-m-Tolyl-1H-[1,2,4]triazol-3-yl)-benzoic acid] was 223 to 225 °C.
Turning to `O=C(O)c1cccc(-n2ccc(-c3ccccc3)n2)c1` [Compound 79, 3-(3-Phenyl-pyrazol-1-yl)-benzoic acid], the melting point lay in the range of 180 to 182 °C.
In the case of `O=C(O)c1ccc(-n2cc(-c3ccc4c(c3)OCO4)cn2)cc1` [Compound 205, 4-(4-Benzo[1,3]dioxol-5-yl-pyrazol-1-yl)-benzoic acid], the melting point fell in the range of 286 to 288 °C.
The compound `COc1ccc(-c2ccn(-c3ccc(C(=O)O)cc3)n2)cc1` [Compound 219, 4-[3-(4-Methoxy-phenyl)-pyrazol-1-yl]-benzoic acid] yielded a melting point of 268 to 270 °C.
The value for `O=C(O)c1cccc(-c2cnn(-c3ccc(C(F)(F)F)cc3)c2)c1` [Compound 235, 3-[1-(4-Trifluoromethyl-phenyl)-1H-pyrazol-4-yl]-benzoic acid] was 218 to 220 °C; that for `O=C(O)c1cccc(-c2ncn(-c3ccc(F)cc3F)n2)c1` [Compound 16, 3-[1-(2,4-Difluoro-phenyl)-1H-[1,2,4]triazol-3-yl]-benzoic acid] was 290 to 291 °C and 290 to 292 °C; that for `COc1cccc(-c2cnn(-c3ccc(C(=O)O)cc3)c2)c1` [Compound 109, 4-[4-(3-Methoxy-phenyl)-pyrazol-1-yl]-benzoic acid] was 222 to 223 °C.
For the compound `O=C(O)c1cccc(-c2ccn(-c3ccc4c(c3)OCO4)c2)c1` [Compound 247, 3-(1-Benzo[1,3]dioxol-5-yl-1H-pyrrol-3-yl)-benzoic acid], the melting point lay within 177 to 180 °C.
`O=C(O)c1ccc(-n2cc(-c3cccc(Oc4ccccc4)c3)cn2)cc1` [Compound 215, 4-[4-(3-Phenoxy-phenyl)-pyrazol-1-yl]-benzoic acid] came in with a melting point of 211 to 213 °C.
On to `N#Cc1cccc(-c2ccn(-c3ccc4c(c3)OCO4)n2)c1` [Compound 60, 3-(1-Benzo[1,3]dioxol-5-yl-1H-pyrazol-3-yl)-benzonitrile], for which the melting point lay in the range of 144 to 147 °C.
The value for `COc1ccc(-c2ccn(-c3cccc(C(=O)O)c3)n2)cc1` [Compound 81, 3-[3-(4-Methoxy-phenyl)-pyrazol-1-yl]-benzoic acid] was 210 to 211 °C; that for `O=C(O)c1ccc(-c2ccn(-c3ccccc3)c2)cc1` [Compound 130, 4-(1-Phenyl-1H-pyrrol-3-yl)-benzoic acid] was 239 to 241 °C.
For `CC(C)c1ccc(-n2cnc(-c3cccc(C(=O)O)c3)c2)cc1`, the melting point fell in the range of 225 to 226 °C.
The compound `O=C(O)c1cccc(-c2ccn(-c3cccc(OCc4ccccc4)c3)n2)c1` [Compound 175, 3-[1-(3-Benzyloxy-phenyl)-1H-pyrazol-3-yl]-benzoic acid] yielded a melting point of 152 to 153 °C.
As to `CC(C)c1ccc(-c2nn(-c3ccc(C(=O)O)cc3)c(=S)s2)cc1` [Compound 282, 4-[5-(4-Isopropyl-phenyl)-2-thioxo-[1,3,4]thiadiazol-3-yl]-benzoic acid], the melting point is 176 to 179 °C.
With `COc1cccc(-c2cn(-c3ccc(C(=O)O)cc3)nn2)c1` [Compound 204, 4-[4-(3-Methoxyphenyl)-[1,2,3]triazol-1-yl]benzoic acid] the figure was 276 to 277 °C; with `O=C(O)c1ccc(-n2cc3c(n2)-c2ccccc2CC3)cc1` [Compound 161, 4-(4,5-Dihydro-benzo[g]indazol-2-yl)-benzoic acid], 288 to 290 °C; with `Cc1ccc(-n2cc(-c3cccc(C(=O)O)c3)cn2)cc1` [Compound 177, 3-(1-p-Tolyl-1H-pyrazol-4-yl)-benzoic acid], 229 to 231 °C.
Consider `O=C(O)c1cccc(-c2ncn(-c3ccc(OC(F)(F)F)cc3)n2)c1` [Compound 19, 3-[1-(4-Trifluoromethoxy-phenyl)-1H-[1,2,4]triazol-3-yl]-benzoic acid], for which the melting point lay in the range of 219 to 221 °C.
With `O=C(O)c1cccc(-n2ccc(-c3ccc(F)cc3)n2)c1` [Compound 92, 3-[3-(4-Fluoro-phenyl)-pyrazol-1-yl]-benzoic acid] the figure was 237 to 240 °C.
